# According to US10294202B2, “Pyrrolidinones as herbicides” (FMC Corporation, priority 2013, dated 2019):
# Columns and labels:
# lambsquarters = assay: Test C pre-/postemergence herbicide test; assay type: in vivo, Chenopodium album
# In short: (§1)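 Pre-emergence: seeds sown in loam/sand blend and treated with compound in surfactant-containing solvent. Post-emergence: plants at 2–18 cm (1- to 4-leaf stage) in peat-based medium sprayed with the same formulation. Visual rating versus controls after 13–15 days in greenhouse, scale 0 (no effect) to 100 (complete control).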
# barnyardgrass [1] = assay: Test C pre-/postemergence herbicide test; assay type: in vivo, Echinochloa crus-galli
# In short: as §1
# oilseed rape = assay: Test C pre-/postemergence herbicide test; assay type: in vivo, Brassica napus
# In short: as §1
# rice = assay: Test B flooded paddy test; assay type: in vivo, Oryza sativa; conditions: Flood, scale of 0 to 100 where 0 is no effect and 100 is complete control
# In short: (§2)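 Scoring: visual, compared with untreated controls, 0 = no effect through 100 = complete control, taken 13 to 15 days after treatment in the greenhouse. Compounds had been added to paddy water over soil flooded 3 cm deep at the plants' 2-leaf stage.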
# ducksalad = assay: Test B flooded paddy test; assay type: in vivo, Heteranthera limosa; conditions: Flood, scale of 0 to 100 where 0 is no effect and 100 is complete control
# In short: as §2
# wheat = assay: Test A pre-/postemergence herbicide test; assay type: in vivo, Triticum aestivum
# In short: (§3)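 Seeds in loam–sand blend received preemergence directed soil spray; separately, plants 2–10 cm at one- to two-leaf stage received postemergence spray, both with test chemicals in non-phytotoxic solvent with surfactant. After ~10 days in greenhouse, injury rated visually against untreated controls, 0 (no effect) to 100 (complete control).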
# giant foxtail = assay: Test A pre-/postemergence herbicide test; assay type: in vivo, Setaria faberii
# In short: as §3
# nutsedge, yellow = assay: Test C pre-/postemergence herbicide test; assay type: in vivo, Cyperus esculentus
# In short: as §1
# barnyardgrass [2] = assay: Test B flooded paddy test; assay type: in vivo, Echinochloa crus-galli; conditions: Flood, scale of 0 to 100 where 0 is no effect and 100 is complete control
# In short: as §2
# pigweed = assay: Test C pre-/postemergence herbicide test; assay type: in vivo, Amaranthus retroflexus
# In short: as §1
# crabgrass, large = assay: Test C pre-/postemergence herbicide test; assay type: in vivo, Digitaria sanguinalis
# In short: as §1
# blackgrass = assay: Test C pre-/postemergence herbicide test; assay type: in vivo, Alopecurus myosuroides
# In short: as §1
# [3] = Postemergence, 31 g ai/ha, scale 0 to 100 (0 no effect, 100 complete control)
# [4] = Postemergence, 62 g ai/ha, scale 0 (no effect) to 100 (complete control)
# [5] = Postemergence, 125 g ai/ha, scale 0 to 100 (0 no effect, 100 complete control)
# [6] = Postemergence, 250 g ai/ha, scale 0 to 100 (0 no effect, 100 complete control)
# [7] = Preemergence, 31 g ai/ha, scale 0 to 100, 0 is no effect and 100 is complete control
# [8] = Preemergence, 62 g ai/ha, scale 0 to 100
# [9] = Preemergence, 125 g ai/ha, scale 0 to 100 (0 no effect, 100 complete control)
# [10] = Postemergence, 125 g ai/ha, 0 to 100 scale, 0 no effect, 100 complete control
# [11] = Preemergence, 62 g ai/ha, scale 0 to 100 (0 no effect, 100 complete control)
# [12] = Postemergence, 125 g ai/ha, 0 to 100 scale, 0 is no effect, 100 is complete control
# [13] = Postemergence, 500 g ai/ha, 0 to 100 scale (0 no effect, 100 complete control)
# [14] = Preemergence, 125 g ai/ha, 0 to 100 scale where 0 is no effect and 100 is complete control
# [15] = preemergence, 500 g ai/ha, 0 to 100 scale, 0 is no effect and 100 is complete control
smiles,measurement,setting,value
O=C1NCC(c2ccc(F)cc2)C1C(=O)Nc1cccc(F)c1F (racemic) [Compound 119],"Plant response rating, Lambsquarters",lambsquarters; [3],5
same,"Plant response rating, Lambsquarters",lambsquarters; [4],50
same,"Plant response rating, Lambsquarters",lambsquarters; [5],75
same,"Plant response rating, Lambsquarters",lambsquarters; [6],70
same,Lambsquarters plant response rating,lambsquarters; [7],25
same,"Plant response rating, Lambsquarters",lambsquarters; [8],60
same,"Plant response rating, Lambsquarters",lambsquarters; [9],85
same,"Plant response rating (scale of 0 to 100), Lambsquarters","lambsquarters; Preemergence, 250 g ai/ha",85
same,"Plant response rating, Barnyardgrass",barnyardgrass [1]; [3],25
same,"Plant response rating, Barnyardgrass",barnyardgrass [1]; [4],40
same,"Plant response rating, Barnyardgrass",barnyardgrass [1]; [5],65
same,"Plant response rating, Barnyardgrass",barnyardgrass [1]; [6],80
same,Barnyardgrass plant response rating,barnyardgrass [1]; [7],80
same,"Plant response rating, Barnyardgrass",barnyardgrass [1]; [8],90
same,"Plant response rating, Barnyardgrass",barnyardgrass [1]; [9],95
same,"Plant response rating (scale of 0 to 100; 0 is no effect, 100 is complete control), Barnyardgrass","barnyardgrass [1]; Preemergence, 250 g ai/ha",98
same,"Plant response rating, Oilseed Rape",oilseed rape; [3],0
same,"Plant response rating, Oilseed Rape",oilseed rape; [4],0
same,"Plant response rating, Oilseed Rape",oilseed rape; [5],0
same,"Plant response rating, Oilseed Rape",oilseed rape; [6],5
same,Oilseed Rape plant response rating,oilseed rape; [7],0
same,"Plant response rating, Oilseed Rape",oilseed rape; [8],5
same,"Plant response rating, Oilseed Rape",oilseed rape; [9],80
same,"Plant response rating (scale of 0 to 100), Oilseed Rape","oilseed rape; Preemergence, 250 g ai/ha",80
same,"Plant response rating, Rice",rice; 500 g ai/ha,10
same,"Plant response rating, Ducksalad",ducksalad; 500 g ai/ha,100
same,"Plant response rating, Wheat",wheat; [10],20
same,"Wheat plant response rating (0 to 100 scale, 0 is no effect, 100 is complete control)","wheat; Postemergence, 500 g ai/ha",70
same,"Plant response rating, Foxtail, Giant","giant foxtail; 125 g ai/ha, visual rating, 0 to 100 scale, 0 no effect, 100 complete control, approximately 10 days, preemergence",90
same,"Plant response rating, Foxtail, Giant",giant foxtail; [10],90
same,"Foxtail, Giant plant response rating (0 to 100 scale, 0 is no effect, 100 is complete control)","giant foxtail; Postemergence, 500 g ai/ha",90
same,"Plant response rating, Foxtail, Giant","giant foxtail; preemergence, 500 g ai/ha, 0 to 100 scale",90
same,"Plant response rating, Nutsedge, Yellow","nutsedge, yellow; [3]",0
same,"Plant response rating, Nutsedge, Yellow","nutsedge, yellow; [4]",0
same,"Plant response rating, Nutsedge, Yellow","nutsedge, yellow; [5]",0
same,"Plant response rating, Nutsedge, Yellow","nutsedge, yellow; [6]",0
same,"Nutsedge, Yellow plant response rating","nutsedge, yellow; [7]",0
same,"Plant response rating, Nutsedge, Yellow","nutsedge, yellow; [8]",0
same,"Plant response rating, Nutsedge, Yellow","nutsedge, yellow; [9]",0
same,"Plant response rating (scale of 0 to 100), Nutsedge, Yellow","nutsedge, yellow; Preemergence, 250 g ai/ha",0
same,"Plant response rating, Barnyardgrass",barnyardgrass [2]; 500 g ai/ha,80
same,"Plant response rating, Pigweed",pigweed; [3],10
same,"Plant response rating, Pigweed",pigweed; [4],10
same,"Plant response rating, Pigweed",pigweed; [5],15
same,"Plant response rating, Pigweed",pigweed; [6],25
same,Pigweed plant response rating,pigweed; [7],30
same,"Plant response rating, Pigweed",pigweed; [8],60
same,"Plant response rating, Pigweed",pigweed; [9],75
same,"Plant response rating (scale of 0 to 100), Pigweed","pigweed; Preemergence, 250 g ai/ha",85
same,"Plant response rating, Crabgrass, Large","crabgrass, large; [3]",55
same,"Plant response rating, Crabgrass, Large","crabgrass, large; [4]",65
same,"Plant response rating, Crabgrass, Large","crabgrass, large; [5]",80
same,"Plant response rating, Crabgrass, Large","crabgrass, large; [6]",90
same,"Crabgrass, Large plant response rating","crabgrass, large; [7]",98
same,"Plant response rating, Crabgrass, Large","crabgrass, large; [8]",98
same,"Plant response rating, Crabgrass, Large","crabgrass, large; [9]",100
same,"Plant response rating (scale of 0 to 100), Crabgrass, Large","crabgrass, large; Preemergence, 250 g ai/ha",100
same,"Plant response rating, Blackgrass",blackgrass; [3],0
same,"Plant response rating, Blackgrass",blackgrass; [4],0
same,"Plant response rating, Blackgrass",blackgrass; [5],0
same,"Plant response rating, Blackgrass",blackgrass; [6],0
same,Blackgrass plant response rating,blackgrass; [7],0
same,"Plant response rating, Blackgrass",blackgrass; [8],70
same,"Plant response rating, Blackgrass",blackgrass; [9],80
same,"Plant response rating (scale of 0 to 100), Blackgrass","blackgrass; Preemergence, 250 g ai/ha",85
O=C1NCC(c2ccc(C(F)(F)F)c(F)c2)C1C(=O)Nc1ccccc1F (racemic) [Compound 246],Lambsquarters plant response rating,lambsquarters; [7],65
same,Lambsquarters plant response rating,lambsquarters; [11],65
same,"Plant response rating, Lambsquarters",lambsquarters; [9],80
same,"Plant response rating (scale of 0 to 100), Lambsquarters","lambsquarters; Preemergence, 250 g ai/ha",90
same,Barnyardgrass plant response rating,barnyardgrass [1]; [7],20
same,"Plant response rating, Barnyardgrass",barnyardgrass [1]; [8],75
same,"Plant response rating, Barnyardgrass",barnyardgrass [1]; [9],75
same,"Plant response rating (scale of 0 to 100; 0 is no effect, 100 is complete control), Barnyardgrass","barnyardgrass [1]; Preemergence, 250 g ai/ha",90
same,Oilseed Rape plant response rating,oilseed rape; [7],0
same,Oilseed Rape plant response rating,oilseed rape; [11],30
same,"Plant response rating, Oilseed Rape",oilseed rape; [9],0
same,"Plant response rating (scale of 0 to 100), Oilseed Rape","oilseed rape; Preemergence, 250 g ai/ha",30
same,"Plant response rating, Rice",rice; 1000 g ai/ha,20
same,"Plant response rating, Ducksalad",ducksalad; 1000 g ai/ha,95
same,"Plant response rating, Wheat",wheat; [12],0
same,"Plant response rating, Wheat",wheat; [13],30
same,"Plant response rating, Wheat",wheat; [14],0
same,"Plant response rating, Foxtail, Giant",giant foxtail; [12],40
same,"Plant response rating, Foxtail, Giant",giant foxtail; [13],80
same,"Plant response rating, Foxtail, Giant",giant foxtail; [14],80
same,"Plant response rating, Foxtail, Giant",giant foxtail; [15],90
same,"Nutsedge, Yellow plant response rating","nutsedge, yellow; [7]",85
same,"Nutsedge, Yellow plant response rating","nutsedge, yellow; [11]",100
same,"Plant response rating, Nutsedge, Yellow","nutsedge, yellow; [9]",100
same,"Plant response rating (scale of 0 to 100), Nutsedge, Yellow","nutsedge, yellow; Preemergence, 250 g ai/ha",0
same,"Plant response rating, Barnyardgrass",barnyardgrass [2]; 1000 g ai/ha,60
same,Pigweed plant response rating,pigweed; [7],30
same,Pigweed plant response rating,pigweed; [11],75
same,"Plant response rating, Pigweed",pigweed; [9],75
same,"Plant response rating (scale of 0 to 100), Pigweed","pigweed; Preemergence, 250 g ai/ha",100
same,"Crabgrass, Large plant response rating","crabgrass, large; [7]",95
same,"Crabgrass, Large plant response rating","crabgrass, large; [11]",95
same,"Plant response rating, Crabgrass, Large","crabgrass, large; [9]",95
same,"Plant response rating (scale of 0 to 100), Crabgrass, Large","crabgrass, large; Preemergence, 250 g ai/ha",98
same,Blackgrass plant response rating,blackgrass; [7],0
same,"Plant response rating, Blackgrass",blackgrass; [8],0
same,"Plant response rating, Blackgrass",blackgrass; [9],5
same,"Plant response rating (scale of 0 to 100), Blackgrass","blackgrass; Preemergence, 250 g ai/ha",70
O=C1NCC(c2ccc(C(F)(F)F)c(F)c2)C1C(=O)Nc1cccc(F)c1F (racemic) [Compound 247],Lambsquarters plant response rating,lambsquarters; [7],0
same,Lambsquarters plant response rating,lambsquarters; [11],90
same,"Plant response rating, Lambsquarters",lambsquarters; [9],70
same,"Plant response rating (scale of 0 to 100), Lambsquarters","lambsquarters; Preemergence, 250 g ai/ha",80
same,Barnyardgrass plant response rating,barnyardgrass [1]; [7],15
same,Barnyardgrass plant response rating,barnyardgrass [1]; [11],85
same,"Plant response rating, Barnyardgrass",barnyardgrass [1]; [9],90
same,"Plant response rating (scale of 0 to 100; 0 is no effect, 100 is complete control), Barnyardgrass","barnyardgrass [1]; Preemergence, 250 g ai/ha",90
same,Oilseed Rape plant response rating,oilseed rape; [7],5
same,Oilseed Rape plant response rating,oilseed rape; [11],30
same,"Plant response rating, Oilseed Rape",oilseed rape; [9],30
same,"Plant response rating (scale of 0 to 100), Oilseed Rape","oilseed rape; Preemergence, 250 g ai/ha",80
same,"Plant response rating, Rice",rice; 1000 g ai/ha,0
same,"Plant response rating, Ducksalad",ducksalad; 1000 g ai/ha,95
same,"Plant response rating, Wheat",wheat; [12],0
same,"Plant response rating, Wheat",wheat; [13],30
same,"Plant response rating, Wheat",wheat; [14],0
same,"Plant response rating, Wheat",wheat; [15],0
same,"Plant response rating, Foxtail, Giant",giant foxtail; [12],50
same,"Plant response rating, Foxtail, Giant",giant foxtail; [13],80
same,"Plant response rating, Foxtail, Giant",giant foxtail; [14],80
same,"Plant response rating, Foxtail, Giant",giant foxtail; [15],90
same,"Nutsedge, Yellow plant response rating","nutsedge, yellow; [7]",0
same,"Nutsedge, Yellow plant response rating","nutsedge, yellow; [11]",20
same,"Plant response rating, Nutsedge, Yellow","nutsedge, yellow; [9]",20
same,"Plant response rating (scale of 0 to 100), Nutsedge, Yellow","nutsedge, yellow; Preemergence, 250 g ai/ha",0
same,"Plant response rating, Barnyardgrass",barnyardgrass [2]; 1000 g ai/ha,85
same,Pigweed plant response rating,pigweed; [7],0
same,Pigweed plant response rating,pigweed; [11],55
same,"Plant response rating, Pigweed",pigweed; [9],85
same,"Plant response rating (scale of 0 to 100), Pigweed","pigweed; Preemergence, 250 g ai/ha",90
same,"Crabgrass, Large plant response rating","crabgrass, large; [7]",95
same,"Crabgrass, Large plant response rating","crabgrass, large; [11]",95
same,"Plant response rating, Crabgrass, Large","crabgrass, large; [9]",98
same,"Plant response rating (scale of 0 to 100), Crabgrass, Large","crabgrass, large; Preemergence, 250 g ai/ha",100
same,Blackgrass plant response rating,blackgrass; [7],0
same,Blackgrass plant response rating,blackgrass; [11],50
same,"Plant response rating, Blackgrass",blackgrass; [9],60
same,"Plant response rating (scale of 0 to 100), Blackgrass","blackgrass; Preemergence, 250 g ai/ha",70
